Reference: patent US20080132568A1, “COMPOUNDS WITH ANTI-ANDROGENIC ACTIVITY AND THE USE THEREOF” (priority 2006, published 2008)
Entries after “also recorded” stand apart in the source; their conditions may differ.

Experiments:
Assay type in all cases: cell-based, human
LNCaP cells = test: LNCaP viability by propidium iodide exclusion and flow cytometry; details: 30 μM, 4 days
Method: (§1) Cell culture and treatment protocols: The LNCaP prostate cancer cells used in these studies were acquired from American Type Culture Collection (Manassas, Va.). All cell lines were maintained in Dulbecco's modified Eagle's medium (DMEM; Invitrogen, Carlsbad, Calif.) containing 5% heat-inactivated fetal calf serum (FCS; Sigma, St. Louis, Mo.) with streptomycin-penicillin antibiotics (designated DMEM/FCS) in a 5% CO2 incubator at 37° C. LAPC4 prostate cancer cells adapted to growth in DMEM and 5% FCS were acquired from George Wilding (University of Wisconsin Paul P. Carbone Comprehensive Cancer Center). For experiments evaluating androgenic responses, cells were cultured in DMEM containing 4% charcoal-stripped FCS and 1% unstripped FCS (designated DMEM/CSS). […]
(§2) Cell proliferation and viability assays: Cell numbers were determined using a hemacytometer. Relative cell growth changes were determined using cells plated in 96-well tissue culture plates using the CyQUANT NF Cell Proliferation Assay Kit (Invitrogen) according to manufacturer's instructions. Cell viability was measured using trypan blue exclusion and quantified using light microscopy and hemacytometry. Additionally, cell viability was measured by propidium iodide exclusion using flow cytometry (FACScan; BD Biosciences, San Jose, Calif.) after VE and ATQ treatment.

[1] = tested on: androgen-sensitive MMTV promoter; test: Promoter activation assay (MMTV/luciferase) in LNCaP; details: 30 μM, 48 hours
Method: Promoter activation assay: LNCaP and LAPC4 prostate carcinoma cell lines were cultured in 12- or 24-well cell culture plates (Costar) in DMEM/CSS 2 to 3 days before transfection. Androgen-induced transcriptional activation was determined using a reporter construct with an MMTV promoter that regulates the expression of luciferase (Thompson T A et al., In Vitro Cell. Dev. Biol. 1993, 29A:165-170). LNCaP cells were transfected using the calcium phosphate precipitation method with an MMTV/luciferase plasmid. LAPC4 cells were transfected with an MMTV/luciferase plasmid using the FuGENE 6 Transfection Reagent (Roche Applied Science), according to the manufacturer's instructions. Twenty-four hours after transfection, cells were treated with R1881 with or without test reagents at the specified concentrations. Cell extracts were acquired 24 to 48 hours after treatment in 100 μL of Cell Culture Lysis Reagent (Promega, Madison, Wis.). Luciferase activity was measured using the Luciferase Assay Substrate (Promega, Madison, Wis.) according to instructions and read on a TD-20/20 Luminometer (Turner Designs, Sunnyvale, Calif.).

[2] = tested on: PC3 prostate cancer cell line; test: Growth of androgen-independent PC3 cells; details: 4 days, data not shown
Method: as §2

AR mRNA [3] = test: AR mRNA expression by qPCR, LNCaP; details: 4 days
Method: (§3) Messenger RNA expression analysis: Total RNA was extracted from cells using TRIzol Reagent (Invitrogen, Carlsbad, Calif.) and cDNA was prepared from total RNA using the High Capacity cDNA Reverse Transcription Kit (Applied Biosystems, Foster City, Calif.). Quantititive PCR was performed for AR expression using an Applied Biosystems 7900HT Fast Real-Time PCR System (Carlsbad, Calif.) and QuantiTect Primers Assays (Qiagen Inc., Valencia, Calif.) for AR and GAPDH mRNA.

AR mRNA [4] = test: AR mRNA expression by qPCR, LAPC4; details: for AR mRNA levels (qPCR): LAPC4, 4 days
Method: as §3

[5] = tested on: LAPC4 prostate cancer cells; test: CyQUANT cell proliferation assay, LAPC4; details: 10 to 50 μM, 4 days
Method: as §1, §2

PSA = test: Prostate specific antigen analysis, LNCaP medium; details: for R1881-induced PSA release / PSA levels in medium: 10 to 40 μM
Method: Prostate specific antigen analysis: LNCaP cells were cultured in 96-well plates (Costar) at 5,000 cells per well in DMEM/CSS 1 day before treatment. Forty-eight hours after treatment, media levels of PSA released from LNCaP cells were measured using a PSA Enzyme Immunoassay Test Kit (BioCheck, Inc., Foster City, Calif.) according to manufacturer's instructions supplied with the kit. PSA levels were normalized to cell numbers as determined using the CyQUANT NF Cell Proliferation Assay Kit (Invitrogen), as described previously.

[6] = tested on: LNCaP prostate cancer cells; test: CyQUANT cell proliferation assay, LNCaP; details: 10 to 50 μM, 4 days
Method: as §1, §2

AR protein [7] = test: Immunoblot analysis of AR protein, LNCaP; details: 4 days
Method: (§4) Immunoblot analysis: LNCaP or LAPC4 prostate cancer cells were plated at a density of 1×10^6 cells per 100 mm cell culture plate in 10 ml of DMEM/CSS and maintained in incubators at 37° C. in 5% CO2. […] Cell extracts were stored at −80° C. until analysis. Total protein (25 μg) from cell extracts were electrophoresed on 7.5% SDS-polyacrylamide gels and transferred to Immobilon-P membranes (Millipore Corp., Bedford, Mass.) using a GENIE wet transfer system (Idea Scientific, Minneapolis, Minn.). Membranes were blocked in Tris-buffered saline containing 5% nonfat dry milk and then incubated with mouse anti-AR (441) monoclonal antibody (Santa Cruz Biotechnology, Santa Cruz, Calif.) or mouse anti-actin antibody (A5441; Sigma). After washing, membranes were incubated with a secondary horseradish peroxidase-conjugated goat anti-mouse IgG (Biomeda, Foster City, Calif.) and analyzed using Western Lightening Chemiluminescence Reagent Plus (Boston, Mass.) on a Kodak Image Station 4000MM (Rochester, N.Y.). Band intensities were determined using Kodak Molecular Imaging Software.

AR protein [8] = test: Immunoblot analysis of AR protein, LAPC4
Method: as §4

Row | SMILES | Cell viability (LNCaP cells) | Androgen-induced (R1881) MMTV promoter luciferase activity [1] | PC3 cell growth [2] | AR mRNA levels (qPCR) (AR mRNA [3]) | AR mRNA levels (qPCR) (AR mRNA [4]) | LAPC4 cell growth (CyQUANT) [5] | R1881-induced PSA release / PSA levels in medium (PSA) | LNCaP cell growth (relative growth, CyQUANT) [6] | decrease in AR mRNA levels (AR mRNA [3]; 30 μM) [fold] | decrease in AR mRNA levels (AR mRNA [4]; LAPC4, 30 μM, 4 days) [fold] | reduction in AR protein levels (AR protein [7]; 30 μM) [fold] | AR protein levels (AR protein [7]) | reduction in AR protein levels (AR protein [8]; LAPC4, 25 μM, 4 days) [fold] | AR protein levels (AR protein [8]; LAPC4, 4 days) | reduction in R1881-induced PSA release compared to untreated control cells (PSA; 10 μM) [%] | decrease in PSA release compared to untreated controls (PSA; 40 μM) [fold]
1 | Cc1c(C)c2c(c(C)c1O)CCC(C)(CCCC(C)CCCC(C)CCCC(C)C)O2 (racemic) [VE, dl-α-tocopherol, reference compound] | did not affect | significantly increased | neither ATQ nor VE decreased the growth | did not affect | did not affect | modest, but significant, decrease; also recorded: decreased slightly; also recorded: much less effective | did not affect; also recorded: remained unchanged | – | – | – | – | – | – | – | – | –
2 | CC1=C(C)C(=O)C(CC[C@](C)(O)CCC[C@H](C)CCC[C@H](C)CCCC(C)C)=C(C)C1=O [ATQ, α-tocopherylquinone] | significantly decreased | inhibit; also recorded: significantly reduced | neither ATQ nor VE decreased the growth | reduced levels | reduced levels | dose-dependent decrease; also recorded: significantly decreased | significantly reduced; also recorded: inhibited | dose-dependent decrease; also recorded: significantly decreased | 2 | 2 | 4 | decreased | 4 | decreased | 50 | 4
